Legend:
Vitis vinifera [1] = assay: Inhibition of photosynthesis in Vitis vinifera cv. Pinot noir assessed as ratio of apparent quantum yield of photo system 2 to apparent quantum yield yield of CO2 fixation at 30 mM measured 7 days post compound application (reference value: 10 +/- 1.7 no unit); assay type: organism-based; settings: in vivo, 168 h, 30000 µM
Vitis vinifera [2] = assay: Inhibition of photosynthesis in Vitis vinifera cv. Pinot noir assessed as CO2 compensation point at 30 mM measured 7 days post compound application (reference value: 74.8 +/- 12.7 umol/mol); assay type: organism-based; settings: in vivo, 168 h, 30000 µM
Vitis vinifera [3] = assay: Inhibition of photosynthesis in Vitis vinifera cv. Pinot noir assessed as PPFD-saturated net CO2 assimilation rate at 30 mM measured 7 days post compound application (reference value: 8.9 +/- 1.5 umol/m2/s); assay type: organism-based; settings: in vivo, 168 h, 30000 µM
Vitis vinifera [4] = assay: Effect on […] CO2 level in Vitis vinifera cv. Pinot noir at 1.2 to 30 mM measured 1 day post compound application; assay type: ADME, organism-based; settings: in vivo, 24 h, 30000 µM
Vitis vinifera [5] = assay: Inhibition of photosynthesis in Vitis vinifera cv. Pinot noir assessed as PPFD-saturated net CO2 assimilation rate at 6 mM measured 7 days post compound application (reference value: 8.9 +/- 1.5 umol/m2/s); assay type: organism-based; settings: in vivo, 168 h, 6000 µM
Vitis vinifera [6] = assay: Inhibition of photosynthesis in Vitis vinifera cv. Pinot noir assessed as apparent quantum yield of CO2 fixation at 30 mM measured 7 days post compound application (reference value: 0.07 +/- 0.01 no unit) umol/m2/s); assay type: organism-based; settings: in vivo, 168 h, 30000 µM
Vitis vinifera [7] = assay: Inhibition of photosynthesis in Vitis vinifera cv. Pinot noir assessed as light compensation point at 30 mM measured 7 days post compound application (reference value: 22.6 +/- 3.1 umol/mol); assay type: organism-based; settings: in vivo, 168 h, 30000 µM
Vitis vinifera [8] = assay: Toxicity in Vitis vinifera cv. Pinot noir assessed as effect on gas exchanges at 1.2 to 30 mM measured 14 days post compound application; assay type: organism-based; settings: in vivo, 336 h, 30000 µM
Vitis vinifera [9] = assay: Inhibition of photosynthesis in Vitis vinifera cv. Pinot noir assessed as intercellular CO2 concentration-saturated net CO2 assimilation rate at 1.2 mM measured 7 days post compound application (reference value: 11.3 +/- 0.8 umol/m2/s); assay type: organism-based; settings: in vivo, 168 h, 1200 µM
Vitis vinifera [10] = assay: Inhibition of photosynthesis in Vitis vinifera cv. Pinot noir assessed as intercellular CO2 concentration-saturated net CO2 assimilation rate at 30 mM measured 7 days post compound application (reference value: 11.3 +/- 0.8 umol/m2/s); assay type: organism-based; settings: in vivo, 168 h, 30000 µM
Vitis vinifera [11] = assay: Increase in […] CO2 level in Vitis vinifera cv. Pinot noir at 6 mM measured 7 days post compound application; assay type: ADME, organism-based; settings: in vivo, 168 h, 6000 µM
Vitis vinifera [12] = assay: Effect on photochemical quenching in Vitis vinifera cv. Pinot noir at 1.2 to 30 mM measured 7 days post compound application; assay type: ADME, organism-based; settings: in vivo, 168 h, 30000 µM
Vitis vinifera [13] = assay: Effect on stomatal conductance in Vitis vinifera cv. Pinot noir at 1.2 to 30 mM measured 1 day post compound application; assay type: ADME, organism-based; settings: in vivo, 24 h, 30000 µM
Vitis vinifera [14] = assay: Inhibition of photosynthesis in Vitis vinifera cv. Pinot noir assessed as in vivo maximum rate of rubisco carboxylation at 30 mM measured 7 days post compound application (reference value: 42.8 +/- 3.2 umol/m2/s); assay type: organism-based; settings: 168 h, 30000 µM
Vitis vinifera [15] = assay: Inhibition of photosynthesis in Vitis vinifera cv. Pinot noir assessed as dark respiration at 30 mM measured 7 days post compound application (reference value: 1.6 +/- 0.0 umol/m2/s); assay type: organism-based; settings: in vivo, 168 h, 30000 µM
Vitis vinifera [16] = assay: Inhibition of photosynthesis in Vitis vinifera cv. Pinot noir assessed as increase in mitochondrial respiration in the light at 30 mM measured 7 days post compound application relative to untreated control; assay type: organism-based; settings: in vivo, 168 h, 30000 µM
Vitis vinifera [17] = assay: Toxicity in Vitis vinifera cv. Pinot noir assessed as effect on gas exchanges at 1.2 to 30 mM measured 10 days post compound application; assay type: organism-based; settings: in vivo, 240 h, 30000 µM
Vitis vinifera [18] = assay: Inhibition of photosynthesis in Vitis vinifera cv. Pinot noir assessed as apparent quantum yield of CO2 fixation at 6 mM measured 7 days post compound application (reference value: 0.07 +/- 0.01 no unit) umol/m2/s); assay type: organism-based; settings: in vivo, 168 h, 6000 µM
Vitis vinifera [19] = assay: Inhibition of photosynthesis in Vitis vinifera cv. Pinot noir assessed as increase in ratio of apparent quantum yield of photo system 2 to apparent quantum yield yield of CO2 fixation at 1.2 to 30 mM measured 7 days post compound application; assay type: organism-based; design: scale not given: the % may be the effect or the level left; settings: in vivo, 168 h, 30000 µM
[20] = Inhibition of photosynthesis in Vitis vinifera cv. Pinot noir assessed as reduction in net photosynthetic rate at 30 mM measured 7 days post compound application; assay type: organism-based; settings: in vivo
Vitis vinifera [21] = assay: Effect on total nonphotochemical quenching in Vitis vinifera cv. Pinot noir at 1.2 to 30 mM measured 7 days post compound application; assay type: ADME, organism-based; settings: in vivo, 168 h, 30000 µM
[22] = Inhibition of photosynthesis in Vitis vinifera cv. Pinot noir assessed as change in light compensation point at 6 mM measured 7 days post compound application; assay type: organism-based; settings: in vivo
Vitis vinifera [23] = assay: Inhibition of photosynthesis in Vitis vinifera cv. Pinot noir assessed as reduction in net photosynthetic rate at 30 mM measured 1 day post compound application; assay type: organism-based; settings: in vivo, 24 h, 30000 µM
Vitis vinifera [24] = assay: Inhibition of photosynthesis in Vitis vinifera cv. Pinot noir assessed as increase in CO2 compensation point at 30 mM measured 7 days post compound application relative to untreated control; assay type: organism-based; settings: in vivo, 168 h, 30000 µM
Vitis vinifera [25] = assay: Inhibition of photosynthesis in Vitis vinifera cv. Pinot noir assessed as CO2 compensation point at 6 mM measured 7 days post compound application (reference value: 74.8 +/- 12.7 umol/mol); assay type: organism-based; settings: in vivo, 168 h, 6000 µM
photosystem 2 = assay: Inhibition of photosynthesis in Vitis vinifera cv. Pinot noir assessed as reduction in relative quantum yield of photo system 2 at 30 mM measured 7 days post compound application relative to untreated control; assay type: organism-based; settings: in vivo
[26] = Inhibition of photosynthesis in Vitis vinifera cv. Pinot noir assessed as reduction in net photosynthetic rate at 1.2 mM measured 1 day post compound application; assay type: organism-based; settings: in vivo

With N#Cc1c[nH]cc1-c1cccc2c1OC(F)(F)O2 [FLUDIOXONIL] as the compound, how does the Ratio (Vitis vinifera [1]) read?
The Ratio was 19.2.

And the Activity (Vitis vinifera [2])?
Its Activity is 267 umol/mol.

What about the Activity (Vitis vinifera [3]) of the same compound?
Its Activity is 9.4 micromol/m2/s.

What about the Activity (Vitis vinifera [4]) of the same compound?
Its Activity is “Non-toxic”.

What about the Activity (Vitis vinifera [5]) of the same compound?
The Activity was 7.6 micromol/m2/s.

What about the Activity (Vitis vinifera [6]) of the same compound?
Its Activity is 0.04.

And the Activity (Vitis vinifera [7])?
Its Activity is 37 umol/mol.

And the Activity (Vitis vinifera [8])?
Its Activity is “Non-toxic”.

What about the Activity (Vitis vinifera [9]) of the same compound?
Its Activity is 11.3 micromol/m2/s.

And the Activity (Vitis vinifera [10])?
The Activity was 12.2 micromol/m2/s.

And the Activity (Vitis vinifera [11])?
The Activity was 20%.

What about the Activity (Vitis vinifera [12]) of the same compound?
The Activity was “Non-toxic”.

What about the Activity (Vitis vinifera [13]) of the same compound?
The Activity was “Non-toxic”.

And the Activity (Vitis vinifera [14])?
The Activity was 46.7 micromol/m2/s.

What about the Activity (Vitis vinifera [15]) of the same compound?
Its Activity is 1.4 micromol/m2/s.

What about the “fold change (FC)” value (Vitis vinifera [16]) of the same compound?
Its value is 3.5.

What about the Activity (Vitis vinifera [17]) of the same compound?
Its Activity is “Non-toxic”.

What about the Activity (Vitis vinifera [18]) of the same compound?
Its Activity is 0.04.

And the Activity (Vitis vinifera [19])?
Its Activity is 50%.

And the inhibition at 168 h, 30000 µM [20]?
Its inhibition at 168 h, 30000 µM is 38%.

And the Activity (Vitis vinifera [21])?
Its Activity is “Non-toxic”.

And the inhibition at 168 h, 6000 µM [22]?
The inhibition at 168 h, 6000 µM was 20%.

What about the Activity (Vitis vinifera [23]) of the same compound?
Its Activity is “Toxic”.

And the “fold change (FC)” value (Vitis vinifera [24])?
Its value is 3.3.

And the Activity (Vitis vinifera [25])?
Its Activity is 82.2 umol/mol.

What about the inhibition at 168 h, 30000 µM (photosystem 2) of the same compound?
The inhibition at 168 h, 30000 µM was 10%.

What about the inhibition at 24 h, 1200 µM [26] of the same compound?
Its inhibition at 24 h, 1200 µM is 30%.

Reference: ChEMBL document CHEMBL3044966, “Photosynthesis limitations of grapevine after treatment with the fungicide fludioxonil” (J Agric Food Chem, 2008)
